Reference: patent publication US6544727B1, “Methods and devices for the removal of psoralens from blood products” (Cerus Corporation, priority 1995, dated 2003)

Assays:
[1] = HPLC of residual S-59 and photoproducts after RD containing Dowex XUS-43493 (Table N); assay type: physicochemical
Experimental: […] The unbound photoproducts can be monitored and quantified using a standard HPLC assay.
Samples were prepared for HPLC analysis according to the general procedure described in Example 39, infra. Briefly, the assay involved an initial sample preparation which lyses the platelets and solubilizes the S-59 and photoproducts. The supernatant from the sample preparation was then analyzed on a C-18 reverse phase column with a gradient of increasing methanol in KH2PO4 buffer. The major peaks were detected by optical absorbance.
Following illumination with 3.0 J/cm^2 UVA of a PC to which 15.2 mg S-59 had been added, the treated PC was incubated with the RD (contained within a PL 2410 Plastic container, Baxter) for 8 hours. Samples of the treated PC were then taken and subjected to HPLC for detection of residual S-59 and S-59 photoproducts. […] The Limit of Quantitation (LOQ) for the HPLC assay was 0.3 μM S-59.
The data described above indicate that the levels of residual photoproducts D and E are higher than levels of residual S-59 even thought the initial levels of D and E in the illuminated PC were much lower than S-59. […] The PC was assayed for unbound photoproducts using the HPLC assay discussed above, which quantifies the photoproducts present both within the platelets and in the plasma/PAS III mixture. […]

platelets = assay: In vitro platelet function after photochemical treatment and 8-hour RD treatment (Tables O, P); assay type: cell-based, human; details: RD 8 hours; for pH: T: 150 μM S-59, 3 Joules/cm^2 UVA; for (%) Aggregation / (%) HSR / (%) Microvesicle Formation / (%) p-Selectin-Positive / ATP / Bicarbonate / Glucose / Lactate / Morphology (Out Of 400) / Platelet Shape Change / Platelet count / pCO2 / pO2: T: S-59, UVA
Experimental: Two ABO-matched single donor PCs containing 2−5×10^11 platelets in approximately 300 mL of 35% plasma and 65% PAS III were pooled and redivided into two identical units in PL 2410 Plastic containers (Baxter). One unit (the control) was immediately placed on a platelet shaker and stored at approximately 22° C. The other unit (the test) was treated with 150 μM S-59 and 3 Joules/cm^2 UVA. After treatment, the platelets suspension was transferred into a second PL 2410 Plastic container containing a RD. Contact between platelets and the RD occurred for a period of approximately 8 hours, then the platelet suspension was transferred to a new PL 2410 Plastic container for storage. The time of blood donation was defined as day 0. Treatment with S-59, UVA (320-400 nm), and the RD was performed on day 1. Six replicate experiments were carried out, each with a different pool of two ABO-matched single-donor platelet concentrates.
For the evaluation of in vitro platelet function, platelet samples were withdrawn from both the control and test units before treatment and after treatment on days 2, 5, and 7. The following parameters were analyzed: pH, pO2, pCO2, bicarbonate concentration, platelet count, morphology, aggregation, platelet shape change, hypotonic shock response, lactate production, glucose consumption, ATP secretion, p-selectin expression, and microvesicle formation. Several of these assays, including pH, morphology score, platelet shape change, and hypotonic shock response, have been reported in the literature to correlate with in- vivo post-transfusion recovery and survival. The Student's paired t-test was used for statistical analysis.
For platelet count measurement, the volume of the control unit is approximately 5% less than the volume of the paired test unit; thus, for statistical analysis the platelet count per μL for the test unit was adjusted by a factor of […]. The pH of the treated platelets was maintained at 6.91±0.05 after seven days of storage following treatment.

[2] = Batch adsorption of S-59 and photoproducts from illuminated PC, HPLC (Examples 27, 28); assay type: physicochemical
Experimental: The peak corresponding to S-59 is present in the chromatograms representing non-illuminated S-59 (top) and illuminated S-59 (middle) at a retention time of approximately 12 minutes. The other peaks in the chromatogram representing illuminated S-59 (middle) (besides the injection peak at about 3 minutes) correspond to S-59 photoproducts formed during illumination. Note that the peaks appear at time (t)=18 minutes and t=20 minutes are plasma species and are not related to S-59. The peaks which remain in the bottom panel are not S-59 photoproducts, so removal of S-59 and photoproducts was essentially complete in this case as indicated by HPLC (i.e., non-detectable by HPLC).

## Cc1oc2c(C)c3oc(=O)cc(C)c3cc2c1COCCN [Compound 2, 4′-(4-amino-2-oxa)butyl-4,5′,8-trimethylpsoralen]
[1]; PC with 15.2 mg S-59, 3.0 J/cm^2 UVA, incubated 8 hours with RD containing Dowex XUS-43493, LOQ 0.3 μM
  Concentration Remaining (Average ± S.D.): 270 ± 50 nM
[1]; following illumination and incubation with the RD
  initial 15.2 mg of S-59 removed from PCs: greater than 99%
platelets; Day 2
  pH: 6.94 ± 0.05
  (%) Aggregation: 88 ± 4%
  (%) HSR: 52 ± 5 %
  (%) Microvesicle Formation: 0.9 ± 0.2%
  (%) p-Selectin-Positive: 49 ± 5 %
  ATP: 1.0 ± 0.1 Nmoles Per 10^8 Platelets
  Bicarbonate: 6.3 ± 0.3 mM
  Glucose: 4.6 ± 0.9 mM
  Lactate: 4.7 ± 1.2 mM
  Morphology (Out Of 400): 302 ± 16
  Platelet Shape Change: 1.0 ± 0.1
  Platelet count: 1545 ± 247 × 10^−3/μL
  pCO2: 29.2 ± 3.8 mm Hg
  pO2: 68.3 ± 19.4 mm Hg
platelets; Day 5
  pH: 6.92 ± 0.06
  (%) Aggregation: 81 ± 7%
  (%) HSR: 45 ± 3%
  (%) Microvesicle Formation: 0.8 ± 0.2%
  (%) p-Selectin-Positive: 58 ± 5%
  ATP: 0.7 ± 0.2 Nmoles Per 10^8 Platelets
  Bicarbonate: 4.8 ± 0.5 mM
  Glucose: 2.1 ± 1.1 mM
  Lactate: 8.5 ± 1.6 mM
  Morphology (Out Of 400): 290 ± 20
  Platelet Shape Change: 0.9 ± 0.1
  Platelet count: 1525 ± 246 × 10^−3/μL
  pCO2: 23.7 ± 3.5 mm Hg
  pO2: 84.8 ± 22.5 mm Hg
platelets; Day 7
  pH: 6.91 ± 0.05
  (%) Aggregation: 81 ± 4%
  (%) HSR: 48 ± 8%
  (%) Microvesicle Formation: 1.7 ± 1.7%
  (%) p-Selectin-Positive: 60 ± 7%
  ATP: 0.6 ± 0.2 Nmoles Per 10^8 Platelets
  Bicarbonate: 4.2 ± 0.7 mM
  Glucose: 0.8 ± 0.8 mM
  Lactate: 10.8 ± 1.3 mM
  Morphology (Out Of 400): 274 ± 12
  Platelet Shape Change: 0.9 ± 0.3
  Platelet count: 1500 ± 219 × 10^−3/μL
  pCO2: 20.7 ± 2.4 mm Hg
  pO2: 88.8 ± 20.2 mm Hg
[2]; at 2 hours, Amberlite XAD-4 10 g/300 mL, illuminated platelets in 35% plasma/[…]% PAS III, HPLC
  removal of S-59: greater than 99%
[2]; batch devices, appropriate adsorbents
  S-59 and low molecular weight photoproducts adsorbed from PCs: greater than 99%
